Experimental data from article PMC11763059, “GENI as an AMPK Activator Binds α and γ Subunits and Improves the Memory Dysfunction of Alzheimer’s Disease Mouse Models via Autophagy and Neuroprotection” (Antioxidants, 2025).

Experiments:
[1] = molecular target: T1, AMPK-s2 (α subunit- D157A) (Rattus norvegicus, UniProt P54645+P80385, D168A); assay: SPR analysis, AMPK mutant s2; type: binding
T1 construct: His (N); made in house

[2] = molecular target: T2, AMPK-s4 (γ subunit- K148A) (Rattus norvegicus, UniProt P54645+P80385, K148A); assay: SPR analysis, AMPK mutant s4; type: binding
T2 construct: His (N); made in house
T2 sequence (P54645 13-559 limits assumed): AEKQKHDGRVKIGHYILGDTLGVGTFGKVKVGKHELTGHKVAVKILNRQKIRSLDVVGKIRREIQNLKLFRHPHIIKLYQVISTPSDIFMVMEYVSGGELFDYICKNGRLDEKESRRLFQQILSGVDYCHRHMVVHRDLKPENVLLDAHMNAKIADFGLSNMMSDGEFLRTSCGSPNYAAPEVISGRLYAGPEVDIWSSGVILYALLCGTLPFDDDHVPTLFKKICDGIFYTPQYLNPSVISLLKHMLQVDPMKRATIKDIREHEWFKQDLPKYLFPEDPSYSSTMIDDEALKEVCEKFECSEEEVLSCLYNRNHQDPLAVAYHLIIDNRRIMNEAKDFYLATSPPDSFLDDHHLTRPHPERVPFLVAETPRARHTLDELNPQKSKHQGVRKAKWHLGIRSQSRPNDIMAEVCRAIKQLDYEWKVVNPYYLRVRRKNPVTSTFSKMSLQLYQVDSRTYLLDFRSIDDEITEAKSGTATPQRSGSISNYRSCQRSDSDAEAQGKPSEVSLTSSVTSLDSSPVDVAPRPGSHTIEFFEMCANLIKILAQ
T2 sequence (P80386 whole entry partner): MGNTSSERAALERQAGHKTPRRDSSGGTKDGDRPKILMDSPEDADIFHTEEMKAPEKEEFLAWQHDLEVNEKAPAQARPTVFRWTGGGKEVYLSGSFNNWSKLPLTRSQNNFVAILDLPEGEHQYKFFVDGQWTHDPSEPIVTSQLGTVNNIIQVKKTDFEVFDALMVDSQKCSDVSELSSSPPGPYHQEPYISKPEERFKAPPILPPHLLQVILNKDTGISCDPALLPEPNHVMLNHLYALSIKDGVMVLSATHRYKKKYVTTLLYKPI
T2 sequence (P80385 whole entry K148A): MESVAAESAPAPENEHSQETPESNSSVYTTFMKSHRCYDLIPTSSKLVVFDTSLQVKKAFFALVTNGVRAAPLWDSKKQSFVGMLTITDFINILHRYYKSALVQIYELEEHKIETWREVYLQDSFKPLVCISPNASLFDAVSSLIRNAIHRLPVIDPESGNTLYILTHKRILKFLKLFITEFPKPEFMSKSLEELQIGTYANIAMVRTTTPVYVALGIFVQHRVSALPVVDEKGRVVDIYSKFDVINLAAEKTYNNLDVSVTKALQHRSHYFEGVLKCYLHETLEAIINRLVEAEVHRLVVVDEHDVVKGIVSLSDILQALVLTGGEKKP
Procedure: (§1) Mammalian AMPK subunits (His-α1, β1, and γ1) were cloned into a pET-3d vector, and protein expression and purification were similar to the literature.
(§2) SPR analysis was performed with a Biacore T200 instrument (GE Healthcare). Firstly, the purred His-tagged AMPK containing α1β1γ1 protein was captured onto an activated carboxymethylated 5 (CM5) chip using amine coupling to levels ranging from 4000 RU to 6000 RU. Secondly, GENI was dissolved in PBS-P buffer solution (0.05% (v/v) Tween 20 and PBS), and the concentration of GENI was 64 μM. Thirdly, the solution of GENI was diluted to 32 μM, 16 μM, 8 μM, 4 μM, 2 μM, 1 μM and 0.5 μM with PBS-P buffer solution. The sample was filtered by pumping through a […] membrane. A gradient concentration of GENI was injected at a flow rate of 30 μL/min in a running buffer (0.05% (v/v) Tween 20 and PBS). The data were analyzed with Biacore evaluation software (T200 version 2.0) and fitted to the 1:1 Langmuir binding model, and the kinetic parameters were derived.
(§3) The non-covalent interaction between drugs and proteins is an important way to exert drug efficacy, and its mode of action and binding affinity usually determine the utilization and biological activity of drugs. AMPK is a heterotrimer complex consisting of an α subunit containing the kinase domain and two regulatory subunits (β- and γ-). […]

[3] = molecular target: T3, AMPK-s5 (γ subunit- D156A) (Rattus norvegicus, UniProt P54645+P80385, D156A); assay: SPR analysis, AMPK mutant s5; type: binding
T3 construct: His (N); made in house
T3 sequence (P54645 13-559 limits assumed): as the sequence (P54645 13-559 limits assumed) above
T3 sequence (P80386 whole entry partner): as the sequence (P80386 whole entry partner) above
T3 sequence (P80385 whole entry D156A): as the sequence (P80385 whole entry K148A) above, with A148K, D156A counted along it
Procedure: as §1, §2, §3

[4] = molecular target: T4, AMPK-s7 (γ subunit- D316A) (Rattus norvegicus, UniProt P54645+P80385, D316A); assay: SPR analysis, AMPK mutant s7; type: binding
T4 construct: His (N); made in house
T4 sequence (P54645 13-559 limits assumed): as the sequence (P54645 13-559 limits assumed) above
T4 sequence (P80386 whole entry partner): as the sequence (P80386 whole entry partner) above
T4 sequence (P80385 whole entry D316A): as the sequence (P80385 whole entry K148A) above, with A148K, D316A counted along it
Procedure: as §1, §2
The non-covalent interaction between drugs and proteins is an important way to exert drug efficacy, and its mode of action and binding affinity usually determine the utilization and biological activity of drugs. AMPK is a heterotrimer complex consisting of an α subunit containing the kinase domain and two regulatory subunits (β- and γ-). Different action sites have varied or even opposite pharmacological effects. The molecular mechanism of interaction between the protein and molecule should be investigated thoroughly. After co-incubation of GENI and AMPK, LC-MS/MS measurements were performed to predict the binding sites. As shown in Extended Data Figure S2, ASP148, ASP157 and ASP166 of the AMPK α subunits and LYS148, ASP156, LYS309, and ASP316 of the AMPK γ subunit were possible to the binding sites of GENI. […] Thus, all of these seven sites affected the binding of GENI and AMPK to varying degrees, and they were located in the C lobe kinase domain of the AMPK α subunit, and the CBS2 and CBS4 domain of the AMPK γ subunit, respectively.

AMPK = assay: Drug affinity responsive target stability (DARTS), AMPK; type: binding; conditions: 0.1–100 μM GENI, protein: pronase 50:1
Procedure: Cells were lysed by RIPA lysis buffer, and the protein concentration was measured. The lysate was divided into six groups. Before incubation with protease (protein: pronase = 50:1 w/w for PI3K and AMPK detection, 5:1 for MAPK detection, 100:1 for p53 detection) for 25 min in 25 °C, 0.1–100 μM GENI was added to lysates and incubated for 2 h at room temperature. The samples were mixed with loading buffer and then separated on 8% SDS-PAGE for immunoblotting analysis.

BV-2 microglia = assay: BV-2 microglial activity assay (Iba1 staining); type: cell-based, murine; conditions: GENI 1, 3, and 10 μM, LPS 1 μg/mL
Procedure: BV-2 cells (2.5 × 10^4) were seeded in 24-well plates. […] We then removed the medium, washed the cells three times with PBS, and fixed the cells with 4% paraformaldehyde (500 μL/well) for 20 min at room temperature. We washed the cells three times with PBS and added Quick Block^TM immunostaining blocking solution (500 μL/well) to block for 60 min. After removing the blocking solution, we added 200 μL of the primary antibody (Anti-Iba1 rabbit monoclonal antibody, 1:1000, abcam178847) to each well and incubated the samples overnight at 4 °C. The next day, the supernatant was discarded, washed three times with PBS, and incubated with the secondary antibody Cart anti-rabbit IgG (1:1000) at room temperature for 1 h. Nuclei were stained with DAPI (250 μL/well) for 5 min, and the fluorescence was observed under a fluorescent inverted microscope (Olympus IX53, Tokyo, Japan).

natural aging AD mice = assay: Behaviour tests in naturally aged mice with AD; type: in vivo
Procedure: Each group had 10 mice. GENI was dissolved in ultrapure water and administered by gavage, whereas Dor was dissolved in normal saline. The pH was adjusted to pH 5 with 0.1 M hydrochloric acid to the clarified solution and administered by intraperitoneal injection. The dosing experiment also lasted 10 weeks. Animal behavioral experiments and sampling at the end of the animal experiment were performed as described above.
The Y-maze is mainly used to study the spatial working memory ability of rodents. The Y-maze consisted of three equal-length arms (50 cm × 18 cm × 35 cm), and the angle between each two arms was 120 degrees. The mice were placed at the end of any arm of the Y-maze and allowed to explore freely for 8 min. The behavioral changes including the total number of entries and alternation (successively entering all three arms of the Y-maze once in turn) were recorded. Percentage altercation = alternation/(entries-2) × 100%. The Y-maze could effectively reflect the ability of animals to recognize and remember novel environments.
NOR was used to detect memory in rodents. We prepared a 40 × 40 × 40 cm square box, camera equipment, and behavioral analysis software. We chose three objects A, B, and C, where objects A and B were exactly the same, and object C was very different from objects A and B. After the start of the experiment, the mice were allowed to acclimate freely in the experimental apparatus for 10 min. Objects A and B were placed into the box, and the mice were allowed to explore for 5 min. We then recorded the exploration time and times. After 1 h, A and C or B and C were placed into the box. After letting the mice explore for 5 min, we recorded the exploration time of the original object and the new object. Discrimination index = exploration time of new objects/total exploration time × 100%.
The MWM installation consisted of a circular pool (120 cm in diameter and 50 cm in height), camera equipment, and a computer analysis system. In the first stage, the platform position was fixed, and mice were placed into the pool from any three of the four origins on the pool facing away from the pool wall. The time when it took for the mouse to find the platform within 120 s, called escape latency, was recorded. The training period lasted 4 days. The escape latency of the mice was recorded daily, and the average value was used as an index to evaluate the ability of learning and memory. On the 5th day, the platform was evacuated by the experimenter. The mice were placed against the platform into the water from any water entry point, and they were allowed to swim freely for 60 s. We then recorded the number of times that they crossed the platform.

[5] = SPR, association rate, read-out: Ka

T1 sequence (P54645 13-559 D168A limits assumed): as the sequence (P54645 13-559 limits assumed) above, with D156A counted along it
T1 sequence (P80386 whole entry partner): as the sequence (P80386 whole entry partner) above
T1 sequence (P80385 whole entry): as the sequence (P80385 whole entry K148A) above, with A148K counted along it

CC(C)CCOC(=O)C1=CO[C@@H](O[C@@H]2O[C@H](CO)[C@@H](O)[C@H](O)[C@H]2O)C2C(CO)=CCC12 (some centres unmarked) [GENI, Geniposidic 4-isoamyl ester]
dose-dependent response in SPR ([1]; D157 replaced with A157): No significant dose-dependent response | kon [1, 5]: 9120 M⁻¹ s⁻¹ | kon [2, 5]: 4130 M⁻¹ s⁻¹ | dose-dependent relationship in SPR ([2]; point mutation of K148): dose-dependent relationship was lost | kon [3, 5]: 2140 M⁻¹ s⁻¹ | dose-dependent relationship in SPR ([3]; point mutation of D156): dose-dependent relationship was lost | Kd ([4]; SPR): 6.46 µM | kon [4, 5]: 808 M⁻¹ s⁻¹ | response (RU) in SPR ([4]; point mutation of D316, versus wild-type): significantly reduced | stability of AMPK against pronase (DARTS) (AMPK): dramatically enhanced the stability | LPS-induced activation in BV-2 microglia (BV-2 microglia): inhibiting | escape latency, first 4 days of the training phase, water maze test (natural aging AD mice; GENI 25 mg/kg): significantly reduce | number of crossing platforms, fifth day, water maze test (natural aging AD mice; GENI 25 mg/kg): increase | cognitive function (alternating arm entry rate, novel object recognition index) in Y maze and NOR tests (natural aging AD mice; GENI 25 mg/kg intragastrically once a day): improvement
